Experimental data published in patent US20100298141A1, “SUBSTITUTED PYRIDINE N-OXIDE HERBICIDES” (E. I. DU PONT DE NEMOURS AND COMPANY, priority 2007, published 2010).

Assays:
[1] = tested on: giant foxtail; assay: Test C pre-/postemergence test; type: in vivo, Setaria faberii
Outline: (§1)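 Seeds were planted and treated preemergence with test chemical in a non-phytotoxic solvent mixture containing surfactant. Postemergence applications of the same formulation went onto plants 2 to 18 cm tall (1- to 4-leaf stage). A dash marks no test result.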

[2] = tested on: morningglory; assay: Test C pre-/postemergence test; type: in vivo, Ipomoea coccinea
Outline: as §1

[3] = tested on: wheat; assay: Test A pre-/postemergence greenhouse test; type: in vivo, Triticum aestivum; details: for Plant response rating, Wheat: 0 to 100 scale where 0 is no effect and 100 is complete control; for Wheat plant response rating: 0 to 100 scale
Outline: (§2)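 Visual injury ratings against untreated controls, taken roughly ten days after treatment in greenhouse. Plants were sprayed postemergence at one- to two-leaf stage (2–10 cm tall); at the same time, seeded loam/sand soil received a directed preemergence spray. Formulation: non-phytotoxic solvent mixture with surfactant.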

[4] = tested on: giant foxtail; assay: Test A pre-/postemergence greenhouse test; type: in vivo, Setaria faberi; details: for Plant response rating, Foxtail, Giant: 0 to 100 scale where 0 is no effect and 100 is complete control; for Foxtail, Giant plant response rating: 0 to 100 scale
Outline: as §2

[5] = tested on: velvetleaf; assay: Test A pre-/postemergence greenhouse test; type: in vivo, Abutilon theophrasti; details: for Plant response rating, Velvetleaf: 0 to 100 scale where 0 is no effect and 100 is complete control; for Velvetleaf plant response rating: 0 to 100 scale
Outline: as §2

[6] = tested on: corn; assay: Test A pre-/postemergence greenhouse test; type: in vivo, Zea mays; details: for Plant response rating, Corn: 0 to 100 scale where 0 is no effect and 100 is complete control; for Corn plant response rating: 0 to 100 scale
Outline: as §2

[7] = tested on: bermudagrass; assay: Test C pre-/postemergence test; type: in vivo, Cynodon dactylon
Outline: as §1

[8] = tested on: soybean; assay: Test C pre-/postemergence test; type: in vivo, Glycine max
Outline: as §1

[9] = tested on: crabgrass; assay: Test C pre-/postemergence test; type: in vivo, Digitaria sanguinalis
Outline: as §1

[10] = tested on: johnsongrass; assay: Test C pre-/postemergence test; type: in vivo, Sorghum halepense
Outline: as §1

[11] = tested on: rice; assay: Test C flooded paddy test; type: in vivo, Oryza sativa; details: Flood
Outline: (§3)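 Visual injury ratings against untreated controls, taken 13 to 15 days after compound was added to paddy water standing 3 cm above the soil.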

[12] = tested on: Surinam grass; assay: Test C pre-/postemergence test; type: in vivo, Brachiaria decumbens
Outline: as §1

[13] = tested on: barnyardgrass; assay: Test C flooded paddy test; type: in vivo, Echinochloa crus-galli; details: Flood
Outline: as §3

[14] = tested on: downy brome; assay: Test C pre-/postemergence test; type: in vivo, Bromus tectorum
Outline: as §1

[15] = tested on: pigweed; assay: Test C pre-/postemergence test; type: in vivo, Amaranthus retroflexus
Outline: as §1

[16] = tested on: lambsquarters; assay: Test C pre-/postemergence test; type: in vivo, Chenopodium album; details: for Lambsquarters plant response rating: preemergence, scale 0 (no effect) to 100 (complete control); for Plant response rating, Lambsquarters: scale 0 to 100, 0 no effect, 100 complete control
Text: Seeds of plant species selected from blackgrass (Alopecurus myosuroides), downy brome (Bromus tectorum), green foxtail (Setaria viridis), Italian ryegrass (Lolium multiflorum), wheat (Triticum aestivum), wild oat (Avena fatua), catchweed bedstraw (Galium aparine), Russian thistle (Salsola kali), […] (Cynodon dactylon), Surinam grass (Brachiaria decumbens), cocklebur (Xanthium strumarium), corn (Zea mays), crabgrass (Digitaria sanguinalis), woolly cupgrass (Eriochloa villosa), giant foxtail (Setaria faberii), Goosegrass (Eleusin indica), johnsongrass (Sorghum halepense), kochia (Kochia scoparia), lambsquarters (Chenopodium album), morningglory (Ipomoea coccinea), eastern black nightshade (Solanum ptycanthum), yellow nutsedge (Cyperus esculentus), pigweed (Amaranthus retroflexus), common ragweed (Ambrosia elation), soybean (Glycine max), common (oilseed) sunflower (Helianthus annuus), and velvetleaf (Abutilon theophrasti) were planted and treated preemergence with test chemicals formulated in a non-phytotoxic solvent mixture which included a surfactant. At the same time, plants selected from these crop and weed species and also winter barley (Hordeum vulgare), canarygrass (Phalaris minor), and chickweed (Stellaria media) were treated with postemergence applications of some of the test chemicals formulated in the same manner. Plants ranged in height from 2 to 18 cm (1- to 4-leaf stage) for postemergence treatments. […] At time of treatment, test pots were flooded to 3 cm above the soil surface, treated by application of test compounds directly to the paddy water, and then maintained at that water depth for the duration of the test. […] A dash (-) response means no test result.

[17] = 62 g ai/ha, Preemergence, scale 0 to 100
[18] = 125 g ai/ha, preemergence, scale 0 (no effect) to 100 (complete control)
[19] = Preemergence, 31 g ai/ha, scale 0 to 100 (0 no effect, 100 complete control)
[20] = preemergence, 250 g ai/ha, scale 0 (no effect) to 100 (complete control)
[21] = Postemergence, 500 g ai/ha, 0 is no effect, 100 is complete control
[22] = Preemergence, 125 g ai/ha, 0 no effect, 100 complete control
[23] = 62 g ai/ha, Preemergence, scale 0 to 100 (0 no effect, 100 complete control)
[24] = 62 g ai/ha, scale 0 to 100 (0 no effect, 100 complete control)
[25] = 250 g ai/ha, scale 0 to 100, 0 no effect, 100 complete control, 13 to 15 days
[26] = Postemergence, 62 g ai/ha, scale 0 to 100, 0 no effect, 100 complete control
[27] = Postemergence, 125 g ai/ha, scale 0 to 100, 0 no effect, 100 complete control
[28] = Postemergence, 250 g ai/ha, scale 0 to 100, 0 no effect, 100 complete control

Cn1nc(OC(F)F)c(CS(=O)(=O)c2cccc[n+]2[O-])c1C(F)(F)F [Compound 80]
60: Wheat plant response rating [3, 21] | Velvetleaf plant response rating [5, 21] | Plant response rating, Corn ([6]; Preemergence, 500 g ai/ha) | Plant response rating, Barnyardgrass [13, 25] | Bromegrass, Downy plant response rating [14, 18] | Lambsquarters plant response rating ([16]; 125 g ai/ha)
100: Foxtail, Giant plant response rating [1, 20] | Morningglory plant response rating [2, 18] | Plant response rating, Foxtail, Giant ([4]; Preemergence, 500 g ai/ha) | Bermudagrass plant response rating [7, 23] | Bermudagrass plant response rating [7, 18] | Plant response rating, Bermudagrass [7, 19] | Bermudagrass plant response rating [7, 20] | Johnsongrass plant response rating [10, 20] | Surinam Grass plant response rating [12, 20] | Lambsquarters plant response rating ([16]; 250 g ai/ha)
40: Bromegrass, Downy plant response rating [14, 17] | Plant response rating, Bromegrass, Downy [14, 19]
70: Plant response rating, Foxtail, Giant ([4]; Postemergence, 125 g ai/ha) | Plant response rating, Velvetleaf ([5]; Preemergence, 500 g ai/ha) | Plant response rating, Surinam Grass [12, 19]
95: Bromegrass, Downy plant response rating [14, 20]
50: Corn plant response rating [6, 21] | Plant response rating, Rice [11, 25]
20: Soybean plant response rating [8, 18] | Soybean plant response rating [8, 20]
10: Plant response rating, Morningglory [2, 19] | Wheat plant response rating [3, 22]
80: Plant response rating, Foxtail, Giant [1, 19] | Plant response rating, Wheat ([3]; Preemergence, 500 g ai/ha) | Foxtail, Giant plant response rating [4, 21] | Surinam Grass plant response rating [12, 17] | Surinam Grass plant response rating [12, 18]
0: Plant response rating, Velvetleaf ([5]; Postemergence, 125 g ai/ha) | Velvetleaf plant response rating [5, 22] | Plant response rating, Corn ([6]; Postemergence, 125 g ai/ha) | Corn plant response rating [6, 22] | Soybean plant response rating [8, 17] | Plant response rating, Soybean [8, 19] | Plant response rating, Rice [11, 24] | Plant response rating, Barnyardgrass [13, 24] | Pigweed plant response rating [15, 17] | Pigweed plant response rating [15, 18] | Plant response rating, Pigweed [15, 19] | Pigweed plant response rating [15, 20]
30: Plant response rating, Wheat ([3]; Postemergence, 125 g ai/ha)
90: Foxtail, Giant plant response rating [1, 17] | Foxtail, Giant plant response rating [4, 22] | Johnsongrass plant response rating [10, 18]
98: Foxtail, Giant plant response rating [1, 18] | Crabgrass, Large plant response rating [9, 20]
85: Crabgrass, Large plant response rating [9, 17] | Crabgrass, Large plant response rating [9, 18] | Plant response rating, Crabgrass, Large [9, 19] | Johnsongrass plant response rating [10, 17] | Plant response rating, Johnsongrass [10, 19]

Cn1nc(C(F)(F)F)c(C[S+]([O-])c2ccc(F)c[n+]2[O-])c1OCC(F)(F)F (centres unmarked) [Compound 67]
60: Plant response rating, Morningglory [2, 19] | Plant response rating, Wheat ([3]; Postemergence, 125 g ai/ha) | Wheat plant response rating [3, 22] | Plant response rating, Velvetleaf ([5]; Postemergence, 125 g ai/ha) | Plant response rating, Corn ([6]; Postemergence, 125 g ai/ha) | Plant response rating, Crabgrass, Large [9, 28] | Plant response rating, Crabgrass, Large [9, 19] | Plant response rating, Rice [11, 24] | Plant response rating, Bromegrass, Downy [14, 28] | Plant response rating, Pigweed [15, 28]
65: Plant response rating, Johnsongrass [10, 19]
55: Pigweed plant response rating [15, 17]
30: Plant response rating, Surinam Grass [12, 27]
0: Plant response rating (0 to 100), Foxtail, Giant ([1]; Postemergence, 31 g ai/ha) | Plant response rating, Foxtail, Giant [1, 26] | Plant response rating (0 to 100), Morningglory ([2]; Postemergence, 31 g ai/ha) | Plant response rating, Morningglory [2, 26] | Plant response rating, Morningglory [2, 27] | Plant response rating, Morningglory [2, 28] | Corn plant response rating [6, 22] | Plant response rating (0 to 100), Bermudagrass ([7]; Postemergence, 31 g ai/ha) | Plant response rating, Bermudagrass [7, 26] | Plant response rating, Bermudagrass [7, 27] | Plant response rating (0 to 100), Soybean ([8]; Postemergence, 31 g ai/ha) | Plant response rating, Soybean [8, 19] | Plant response rating (0 to 100), Crabgrass, Large ([9]; Postemergence, 31 g ai/ha) | Plant response rating, Crabgrass, Large [9, 26] | Plant response rating (0 to 100), Johnsongrass ([10]; Postemergence, 31 g ai/ha) | Plant response rating, Johnsongrass [10, 26] | Plant response rating, Johnsongrass [10, 27] | Plant response rating, Johnsongrass [10, 28] | Plant response rating (0 to 100), Surinam Grass ([12]; Postemergence, 31 g ai/ha) | Plant response rating (0 to 100), Surinam Grass ([12]; Postemergence, 62 g ai/ha) | Plant response rating (0 to 100), Bromegrass, Downy ([14]; Postemergence, 31 g ai/ha) | Plant response rating (0 to 100), Pigweed ([15]; Postemergence, 31 g ai/ha) | Plant response rating (0 to 100), Pigweed ([15]; Postemergence, 62 g ai/ha) | Plant response rating, Pigweed [15, 27] | Plant response rating (0 to 100), Lambsquarters ([16]; Postemergence, 31 g ai/ha) | Plant response rating, Lambsquarters ([16]; Postemergence, 62 g ai/ha) | Plant response rating, Lambsquarters ([16]; Postemergence, 125 g ai/ha)
40: Plant response rating, Foxtail, Giant [1, 27] | Plant response rating (0 to 100), Soybean ([8]; Postemergence, 62 g ai/ha) | Plant response rating, Bromegrass, Downy [14, 27]
95: Morningglory plant response rating [2, 17]
80: Plant response rating, Foxtail, Giant [1, 19] | Plant response rating, Corn ([6]; Preemergence, 500 g ai/ha) | Soybean plant response rating [8, 17] | Plant response rating, Soybean [8, 28] | Johnsongrass plant response rating [10, 18]
50: Plant response rating, Soybean [8, 27] | Plant response rating, Pigweed [15, 19]
85: Johnsongrass plant response rating [10, 20] | Plant response rating, Surinam Grass [12, 19]
90: Plant response rating, Foxtail, Giant ([4]; Postemergence, 125 g ai/ha) | Velvetleaf plant response rating [5, 21] | Velvetleaf plant response rating [5, 22] | Corn plant response rating [6, 21] | Plant response rating, Bermudagrass [7, 19]
45: Plant response rating, Surinam Grass [12, 28]
10: Plant response rating, Crabgrass, Large [9, 27] | Plant response rating, Bromegrass, Downy [14, 26] | Plant response rating, Lambsquarters ([16]; Postemergence, 250 g ai/ha)
100: Foxtail, Giant plant response rating [1, 17] | Foxtail, Giant plant response rating [1, 18] | Foxtail, Giant plant response rating [1, 20] | Morningglory plant response rating [2, 18] | Morningglory plant response rating [2, 20] | Plant response rating, Wheat ([3]; Preemergence, 500 g ai/ha) | Foxtail, Giant plant response rating [4, 21] | Foxtail, Giant plant response rating [4, 22] | Plant response rating, Foxtail, Giant ([4]; Preemergence, 500 g ai/ha) | Plant response rating, Velvetleaf ([5]; Preemergence, 500 g ai/ha) | Bermudagrass plant response rating [7, 23] | Bermudagrass plant response rating [7, 18] | Bermudagrass plant response rating [7, 20] | Soybean plant response rating [8, 18] | Soybean plant response rating [8, 20] | Crabgrass, Large plant response rating [9, 17] | Crabgrass, Large plant response rating [9, 18] | Crabgrass, Large plant response rating [9, 20] | Surinam Grass plant response rating [12, 17] | Surinam Grass plant response rating [12, 18] | Surinam Grass plant response rating [12, 20] | Bromegrass, Downy plant response rating [14, 17] | Bromegrass, Downy plant response rating [14, 18] | Plant response rating, Bromegrass, Downy [14, 19] | Bromegrass, Downy plant response rating [14, 20] | Pigweed plant response rating [15, 18] | Pigweed plant response rating [15, 20]
70: Plant response rating, Foxtail, Giant [1, 28] | Wheat plant response rating [3, 21] | Plant response rating, Bermudagrass [7, 28] | Johnsongrass plant response rating [10, 17]
